Literature values as cited in patent US8636985B2, “Functional formulation in chewing gum” (priority 2010, dated 2014).

Conditions: several experimental models

Which “anti-inflammatory and antiarthritic properties” value does the source give for `CC1=C(CO)C(=O)O[C@@H]([C@@H](C)[C@H]2CC[C@H]3[C@@H]4C[C@H]5O[C@]56[C@@H](O)C=CC(=O)[C@]6(C)[C@H]4CC[C@]23C)C1` [Withaferin A] here?
The value was “anti-inflammatory and antiarthritic properties”.
